Data taken from patent publication US8299056B2 (Signal Pharmaceuticals, LLC, priority 2008, dated 2012).
Read-outs that look alike come from different tables or passages of the source.

Biological target: T1, Syk (Homo sapiens, UniProt P43405)
T1 construct: purchased Carna Biosciences
Experiment: Syk HTRF assay
Format: biochemical
Method in brief: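 Read-out is the 665 nm/615 nm time-resolved fluorescence ratio after EDTA stop and Eu-anti-phosphotyrosine plus streptavidin-DyLight 647 detection. Reaction ran 1 h at room temperature with start mix of 87.5 μM ATP and 80 nM substrate peptide in pH 7.6 HEPES/MgCl2 buffer.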

[1] = activity levels A-D, read-out: Activity Level (IC50 in the Syk HTRF assay)
[2] = IC50 activity level, read-out: Activity Level
[3] = read-out: Activity Level (Syk HTRF assay IC50)

| IC50 [1] [nM] | IC50 [3] [nM] | further results | Compound |
| --- | --- | --- | --- |
| 1000 to 10000 | – | – | FC(F)(F)c1ccc(Nc2nc3cccc(OC4CCCNC4)n3n2)cc1 (stereo in doubt) [Example 361, (R)-5-(piperidin-3-yloxy)-N-(4-(trifluoromethyl)phenyl)-[1,2,4]triazolo[1,5-a]pyridin-2-amine] |
| – | – | IC50 [2]: 250 to 500 nM | Nc1n[nH]c2ccc(-c3cccc4nc(Nc5ccccc5)nn34)cc12 [Example 511, 5-(3-amino-1H-indazol-5-yl)-N-phenyl-[1,2,4]triazolo[1,5-a]pyridin-2-amine] |
| – | 0.005 to 250 | – | OCc1nc2ccc(Nc3nc4cccc(N[C@H]5CC[C@@H](O)CC5)n4n3)cc2[nH]1 [Example 195, cis-4-(2-(2-(hydroxymethyl)-1H-benzo[d]imidazol-6-ylamino)-[1,2,4]triazolo[1,5-a]pyridin-5-ylamino)cyclohexanol] |
| – | 0.005 to 250 | – | c1ccc(-c2cccc3nc(Nc4ccc5oncc5c4)nn23)cc1 [compound 43, N-(5-phenyl-[1,2,4]triazolo[1,5-a]pyridin-2-yl)benzo[d]isoxazol-5-amine] |
| – | – | IC50 [2]: 0.005 to 250 nM | CC1(C)C(=O)Nc2cc(Nc3nc4cccc(CC5CCOC5)n4n3)ccc21 (single isomer, unassigned; enantiomer 2) [Example 558, 3,3-dimethyl-6-(5-((tetrahydrofuran-3-yl)methyl)-[1,2,4]triazolo[1,5-a]pyridin-2-ylamino)indolin-2-one (enantiomer 2)] |
| 0.005 to 250 | – | – | COCCOc1cc(Nc2nc3cccc(N[C@H]4CC[C@@H](O)CC4)n3n2)ccc1F [Example 210, cis-4-(2-(4-fluoro-3-(2-methoxyethoxy)phenylamino)-[1,2,4]triazolo[1,5-a]pyridin-5-ylamino)cyclohexanol] |
| – | 250 to 500 | – | CC(=O)Nc1ccc(-c2cccc3nc(Nc4ccccc4)nn23)cc1 [compound 79, N-(4-(2-(phenylamino)-[1,2,4]triazolo[1,5-a]pyridin-5-yl)phenyl)acetamide] |
| 1000 to 10000 | – | – | NC(=O)c1cc(Nc2nc3cccc(N[C@H]4CC[C@@H](O)CC4)n3n2)ccc1F [Example 318, cis-2-fluoro-5-(5-(4-hydroxycyclohexylamino)-[1,2,4]triazolo[1,5-a]pyridin-2-ylamino)benzamide] |
| – | 0.005 to 250 | – | CN(C)Cc1nc2ccc(Nc3nc4cccc(-c5ccccc5)n4n3)cc2[nH]1 [compound 31, N-(2-((dimethylamino)methyl)-1H-benzo[d]imidazol-6-yl)-5-phenyl-[1,2,4]triazolo[1,5-a]pyridin-2-amine] |
| – | – | IC50 [2]: 0.005 to 250 nM | COc1cc(-c2cccc3nc(Nc4ccc5c(c4)NC(=O)C5(C)C)nn23)ccn1 [Example 559, 6-(5-(2-methoxypyridin-4-yl)-[1,2,4]triazolo[1,5-a]pyridin-2-ylamino)-3,3-dimethylindolin-2-one] |
| – | – | IC50 [2]: 1000 to 10000 nM | C[C@H](Cc1cccc2nc(Nc3ccccc3)nn12)C(N)=O [Example 460, (R)-2-methyl-3-(2-(phenylamino)-[1,2,4]triazolo[1,5-a]pyridin-5-yl)propanamide] |
| 1000 to 10000 | – | – | CNC(=O)CNCc1cccc2nc(Nc3ccc(C(F)(F)F)cc3)nn12 [Example 213, N-methyl-2-((2-(4-(trifluoromethyl)phenylamino)-[1,2,4]triazolo[1,5-a]pyrridin-5-yl)methylamino)acetamide] |
| – | – | IC50 [2]: 1000 to 10000 nM | NCCn1cnc2cc(-c3cccc4nc(Nc5ccccc5)nn34)ccc21 [Example 490, 5-(1-(2-aminoethyl)-1H-benzo[d]imidazol-5-yl)-N-phenyl-[1,2,4]triazolo[1,5-a]pyridin-2-amine] |
| 1000 to 10000 | – | – | OC[C@@H]1CCCN1c1cccc2nc(Nc3ccc(C(F)(F)F)cc3)nn12 [Example 289, (S)-(1-(2-(4-(trifluoromethyl)phenylamino)-[1,2,4]triazolo[1,5-a]pyridin-5-yl)pyrrolidin-2-yl)methanol] |
| 250 to 500 | – | – | N#Cc1cccc(Nc2nc3cccc(N[C@H]4CC[C@@H](O)CC4)n3n2)c1 [Example 348, cis-3-(5-(4-hydroxycyclohexylamino)-[1,2,4]triazolo[1,5-a]pyridin-2-ylamino)benzonitrile] |
| – | 250 to 500 | – | COCCn1nc(C)c2ccc(Nc3nc4cccc(N[C@H]5CC[C@@H](O)CC5)n4n3)cc21 [Example 194, cis-4-(2-(1-(2-methoxyethyl)-3-methyl-1H-indazol-6-ylamino)-[1,2,4]triazolo[1,5-a]pyridin-5-ylamino)cyclohexanol] |
| 0.005 to 250 | – | – | OC[C@]1(O)CC[C@@H](Nc2cccc3nc(Nc4ccc(C(F)(F)F)cc4)nn23)CC1 [Example 227, cis-1-(hydroxymethyl)-4-(2-(4-(trifluoromethyl)phenylamino)-[1,2,4]triazolo[1,5-a]pyridin-5-ylamino)cyclohexanol] |
| – | 0.005 to 250 | – | COCc1n[nH]c2cc(Nc3nc4cccc(CC5CCOCC5)n4n3)ccc12 [compound 104, N-(3-(methoxymethyl)-1H-indazol-6-yl)-5-((tetrahydro-2H-pyran-4-yl)methyl)-[1,2,4]triazolo[1,5-a]pyridin-2-amine] |
| – | – | IC50 [2]: 1000 to 10000 nM | Fc1ccc(Nc2nc3cccc(NC4CCCNC4)n3n2)cc1 (stereo in doubt) [Example 462, (R)-N^2-(4-fluorophenyl)-N^5-(piperidin-3-yl)-[1,2,4]triazolo[1,5-a]pyridin-2,5-diamine] |
| – | – | IC50 [2]: 1000 to 10000 nM | C[C@@H](CN)Cc1cccc2nc(Nc3ccccc3)nn12 [Example 458, (R)-5-(3-amino-2-methylpropyl)-N-phenyl-[1,2,4]triazolo[1,5-a]pyridin-2-amine] |
| – | 0.005 to 250 | – | Cc1cc(Nc2nc3cccc(N[C@H]4CC[C@@H](O)CC4)n3n2)cnc1N1CCOCC1 [compound 105, cis-4-(2-(5-methyl-6-morpholinopyridin-3-ylamino)-[1,2,4]triazolo[1,5-a]pyridin-5-ylamino)cyclohexanol] |
| 250 to 500 | – | – | O[C@H]1CCCN(c2cccc3nc(Nc4ccc(C(F)(F)F)cc4)nn23)C1 [Example 310, (S)-1-(2-(4-(trifluoromethyl)phenylamino)-[1,2,4]triazolo[1,5-a]pyridin-5-yl)piperidin-3-ol] |
| – | 0.005 to 250 | – | Cc1n[nH]c2ccc(Nc3nc4cccc(N[C@H]5CC[C@H](O)CC5)n4n3)cc12 [compound 127, trans-4-(2-(3-methyl-1H-indazol-5-ylamino)-[1,2,4]triazolo[1,5-a]pyridin-5-ylamino)cyclohexanol] |
| – | 0.005 to 250 | – | CC1(C)C(=O)Nc2cc(Nc3nc4cccc(OC5CCOCC5)n4n3)ccc21 [Example 168, 3,3-dimethyl-6-(5-(tetrahydro-2H-pyran-4-yloxy)-[1,2,4]triazolo[1,5-a]pyridin-2-ylamino)indolin-2-one] |
| 1000 to 10000 | – | – | FC(F)(F)c1ccc(Nc2nc3cccc(CN4CCOCC4)n3n2)cc1 [Example 308, 5-(morpholinomethyl)-N-(4-(trifluoromethyl)phenyl)-[1,2,4]triazolo[1,5-a]pyridin-2-amine] |
| – | – | IC50 [2]: 250 to 500 nM | CC(CO)Cc1cccc2nc(Nc3ccccc3)nn12 (stereo in doubt) [Example 480, (S)-2-methyl-3-(2-(phenylamino)-[1,2,4]triazolo[1,5-a]pyridin-5-yl)propan-1-ol] |
| 0.005 to 250 | – | – | CC(C)n1ncc2ccc(Nc3nc4cccc(N[C@H]5CC[C@@H](O)CC5)n4n3)cc21 [Example 243, cis-4-(2-(1-isopropyl-1H-indazol-6-ylamino)-[1,2,4]triazolo[1,5-a]pyridin-5-ylamino)cyclohexanol] |
